The values that follow are results of earlier work, collected in patent US9301957B2, “Immediate release 4-methyl-3-4[[4-(3-pyridinyl)-2-pyrimidinyl]amino]-N-[5-(4-methyl-1H-imidazol-1-YL)-3-(trifluoromethyl)phenyl] benzamide formulation” (Novartis AG, priority 2011, dated 2016).

For data set [1] the following is noted: nilotinib and its salts.
For data set [2] the following is noted: unit dosage given shortly after food, compared to a fasted state.

For the compound `Cc1cn(-c2cc(NC(=O)c3ccc(C)c(Nc4nccc(-c5cccnc5)n4)c3)cc(C(F)(F)F)c2)cn1` [nilotinib, 4-Methyl-3-[[4-(3-pyridinyl)-2-pyrimidinyl]amino]-N-[5-(4-methyl-1H-imidazol-1-yl)-3-(trifluoromethyl)phenyl]benzamide], the water solubility result in data set [1] was “poorly water soluble”. Moreover, in data set [2], the “systemic exposure, as reflected by AUC and Cmax” value is “increases markedly”.
